Measured values as given in patent US8889878B2, “Haloalky-substituted amides as insecticides and acaricides” (Bayer CropScience AG, priority 2009, dated 2014).

Experiments:
[1] = logP by HPLC on reverse-phase column (EEC Directive 79/831 Annex V.A8); assay type: physicochemical; conditions: for chromatographic logP: reverse-phase C18 HPLC column
Protocol: The logP values reported in the above Tables and Preparation Examples were determined according to EEC Directive 79/831 Annex V.A8 by HPLC (High Performance Liquid Chromatography) on a reverse-phase column (C18). Temperature 43° C.

[2] = tested on: Boophilus microplus; assay: Boophilus microplus test (BOOPMI injection), Example 11; assay type: in vivo; conditions: application rate 20 μg/animal, injected into abdomen, after 7 days; for pest or weed control at 0.02 mg: Rhipicephalus microplus, 168 h, read-out: efficacy in % (fertile eggs laid)
Method in brief: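 Efficacy rated from fertile egg laying: 100% means none of the ticks laid fertile eggs, read after 7 days. Compound, dissolved and diluted in DMSO, was delivered by abdominal injection, and ticks were kept in dishes under climate control.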

[3] = tested on: armyworm (Spodoptera frugiperda); assay: Spodoptera frugiperda test (SPODFR spray treatment), Example 15; assay type: in vivo; conditions: maize leaf discs sprayed, after 7 days; for efficacy in %: application rate 100 g/ha; for pest or weed control at 500 g/ha: Spodoptera frugiperda, foliar, 168 h, application rate 500 g/ha, read-out: efficacy in %
Method in brief: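 Caterpillars placed on dried, sprayed Zea mays leaf discs; formulation of acetone, dimethylformamide and emulsifier diluted with emulsifier-containing water to test concentration. Percent kill scored on day 7.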

[4] = tested on: green peach aphid (Myzus persicae); assay: Myzus test (MYZUPE spray treatment), Example 17; assay type: in vivo; conditions: china cabbage leaf discs sprayed, after 6 days
Method in brief: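 Efficacy recorded at 6 days as % kill, where 100% means every aphid dead and 0% none. Spray applied to Brassica pekinensis leaf discs bearing mixed-stage aphids; active ingredient dissolved in acetone with dimethylformamide and emulsifier, then diluted with emulsifier-containing water.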

[5] = tested on: Musca domestica adults; assay: Musca domestica test (MUSCDO), Example 14; assay type: in vivo; conditions: application rate 100 ppm, treated sponge, after 2 days
Protocol: Musca domestica Test (MUSCDO) • Solvent: dimethyl sulphoxide To prepare an appropriate active ingredient formulation, 10 mg of active ingredient are mixed with 0.5 ml of dimethyl sulphoxide, and the concentrate is diluted with water to the desired concentration. Vessels containing a sponge which has been treated with the active ingredient formulation of the desired concentration are populated with Musca domestica adults. After 2 days, the kill rate in % is determined. 100% means that all flies were killed; 0% means that no flies were killed.

[6] = tested on: red spider mite (Tetranychus urticae); assay: Tetranychus test, OP-resistant (TETRUR spray treatment), Example 8; assay type: in vivo; conditions: application rate 20 g/ha, common bean leaf discs sprayed, after 6 days
Protocol: Tetranychus Test, OP-resistant (TETRUR Spray Treatment)
(§1) • Solvent: 78.0 parts by weight of acetone • 1.5 parts by weight of dimethylformamide • Emulsifier: 0.5 part by weight of alkylaryl polyglycol ether
To prepare an active ingredient formulation, 1 part by weight of active ingredient is mixed with the stated amounts of solvent and emulsifier, and the concentrate is diluted with emulsifier-containing water to the desired concentration.
Leaf discs from the common bean (Phaseolus vulgaris) infested by all stages of the red spider mite (Tetranychus urticae) are sprayed with an active ingredient formulation of the desired concentration.
After 6 days, the efficacy in % is determined. 100% means that all spider mites were killed; 0% means that no spider mites were killed.

[7] = tested on: mustard beetle (Phaedon cochleariae); assay: Phaedon test (PHAECO spray treatment), Example 7; assay type: in vivo; conditions: application rate 20 g/ha, china cabbage leaf discs sprayed, after 7 days
Method in brief: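 Spray formulation (acetone/DMF with alkylaryl polyglycol ether, diluted in emulsifier-containing water) applied to Chinese cabbage leaf discs, which were dried and then stocked with mustard beetle larvae. Efficacy scored at 7 days as % larvae killed (100% all, 0% none).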

[8] = tested on: Boophilus microplus; assay: Boophilus microplus test (BOOPMI injection), Example 1; assay type: in vivo; conditions: application rate 20 μg/animal, injected into abdomen, after 7 days
Protocol: Boophilus microplus Test (BOOPMI Injection) • Solvent: dimethyl sulphoxide To prepare an active ingredient formulation, 10 mg of active ingredient are mixed with 0.5 ml of solvent and the concentrate is diluted with water to the desired concentration. The active ingredient solution was injected into the abdomen (Boophilus microplus), and the animals were transferred to dishes and stored in a climate-controlled room. The efficacy was assessed by the number of fertile eggs laid. After 7 days, the efficacy in % is determined. 100% means that no tick laid fertile eggs.

[9] = tested on: mustard beetle (Phaedon cochleariae); assay: Phaedon test (PHAECO spray treatment), Example 16; assay type: in vivo; conditions: Phaedon cochleariae, foliar, china cabbage leaf discs sprayed, after the desired time, read-out: efficacy in %; for pest or weed control at 500 g/ha: application rate 500 g/ha
Protocol: Phaedon Test (PHAECO Spray Treatment)
as §1
To prepare an appropriate active ingredient formulation, 1 part by weight of active ingredient is mixed with the stated amounts of solvent and emulsifier, and the concentrate is diluted with emulsifier-containing water to the desired concentration. […]
After the desired time, the efficacy in % is determined. 100% means that all beetle larvae were killed; 0% means that no beetle larvae were killed.

[10] = pH 2.7, HPLC, C18 reverse phase, 43° C., acidic range pH 2.7, calibration with alkan-2-ones

Structure (SMILES) | logP ([1]; HPLC-MS) | efficacy in % (fertile eggs laid) [2] [%] | kill rate in % (efficacy) [5] [%] | further results
CC(C#N)NC(=O)c1ccc(/C=C/C(=O)NC(c2cccc(C(F)(F)F)c2)C(F)(F)F)cc1C(F)(F)F (centres unmarked) [Ia-141] | HPLC-MS: logP = 3.39; mass | 100 | 100 | efficacy in % [3]: 100%; efficacy in % ([4]; application rate 100 g/ha): 100%
O=C(/C=C/c1ccc(C(=O)NCC(F)F)c(C(F)(F)F)c1)NC(c1cccc(C(F)(F)F)c1)C(F)(F)F (centres unmarked) [Ia-57] | HPLC-MS: logP = 3.48; mass | 100 | 100 | efficacy in % [6]: 90%; efficacy in % ([4]; application rate 500 g/ha): 100%; efficacy in % [7]: 100%
N#Cc1ccc(/C=C/C(=O)NC(c2cccc(C(F)(F)F)c2)C(F)(F)F)cc1Cl (centres unmarked) [Ia-44] | HPLC-MS: logP = 3.91; mass | 100 | – | efficacy in % (fertile eggs laid) [8]: 100%
CC(C)ONC(=O)c1ccc(/C=C/C(=O)NC(c2cccc(C(F)(F)F)c2)C(F)(F)F)cc1C(F)(F)F (centres unmarked) [Ia-149] | HPLC-MS: logP = 3.48; mass | 100 | 100 | efficacy in % [3]: 100%
O=C(/C=C/c1ccc(C(=O)Nc2ccc(Cl)cn2)c(C(F)(F)F)c1)NC(c1cccc(C(F)(F)F)c1)C(F)(F)F (centres unmarked) [Ia-122] | HPLC-MS: logP = 4.3; mass | 100 | 90 | –
C#CCNC(=O)c1ccc(/C=C/C(=O)NC(c2cccc(C(F)(F)F)c2)C(F)(F)F)cc1Cl (centres unmarked) [Ia-151] | HPLC-MS: logP = 3.2; mass | 100 | 80 | –
N#Cc1ccc(/C=C/C(=O)NC(c2cccc(C(F)(F)F)c2)C(F)(F)F)cc1 (centres unmarked) [Ia-8, (2E)-3-(4-Cyanophenyl)-N-{2,2,2-trifluoro-1-[3-(trifluoromethyl)phenyl]ethyl}acrylamide] | – | – | – | efficacy in % (fertile eggs laid) [8]: 100%; chromatographic logP [1, 10]: 3.54; pest or weed control at 0.02 mg [2]: 100%; pest or weed control at 500 g/ha [3]: 100%; pest or weed control at 500 g/ha [9]: 100%
N#CC1CC1NC(=O)c1ccc(/C=C/C(=O)NC(c2cccc(C(F)(F)F)c2)C(F)(F)F)cc1C(F)(F)F (centres unmarked) [Ia-140] | HPLC-MS: logP = 3.37; mass | 100 | 100 | efficacy in % [3]: 100%; efficacy in % ([4]; application rate 100 g/ha): 90%
O=C(/C=C/c1ccc(C(=O)NCC(F)(F)F)c(Cl)c1)NC(c1cccc(C(F)(F)F)c1)C(F)(F)F (centres unmarked) [Ia-19] | HPLC-MS: logP = 3.56; mass | 100 | 100 | –
O=C(/C=C/c1ccc(-c2noc(C3CC3)n2)c(C(F)(F)F)c1)NC(c1cccc(C(F)(F)F)c1)C(F)(F)F (centres unmarked) [Ia-123, (2E)-3-[4-(5-Cyclopropyl-1,2,4-oxadiazol-3-yl)-3-(trifluoromethyl)phenyl]-N-{2,2,2-trifluoro-1-[3-(trifluoromethyl)phenyl]ethyl}acrylamide] | – | – | – | chromatographic logP [1, 10]: 4.53; pest or weed control at 0.02 mg [2]: 100%; pest or weed control at 500 g/ha [3]: 100%; pest or weed control at 500 g/ha [9]: 100%
Cn1c(C(=O)NC(c2cccc(C(F)(F)F)c2)C(F)(F)F)cc2cc(C(=O)NC3CC3)c(Cl)cc21 (racemic) [Ic-25] | – | 100 | 100 | –
O=C(/C=C/c1ccc(C(=O)NC2C[S+]([O-])C2)c(Cl)c1)NC(c1cccc(C(F)(F)F)c1)C(F)(F)F (centres unmarked) [Ia-167, 2-chloro-N-(1-oxidothietan-3-yl)-4-[(1E)-3-oxo-3-({2,2,2-trifluoro-1-[3-(trifluoromethyl)phenyl]ethyl}amino)prop-1-en-1-yl]benzamide] | – | – | – | chromatographic logP [1, 10]: 2.63; efficacy in % ([4]; application rate 100 g/ha): 80%; pest or weed control at 100 g/ha ([9]; application rate 100 g/ha): 100%
CC(CC1CC1)NC(=O)c1ccc(/C=C/C(=O)NC(c2cccc(C(F)(F)F)c2)C(F)(F)F)cc1C(F)(F)F (centres unmarked) [Ia-148] | HPLC-MS: logP = 4.24; mass | 100 | 90 | efficacy in % [3]: 100%
O=C(/C=C/c1ccc(C(=O)NC2CCCC2C(F)(F)F)c(C(F)(F)F)c1)NC(c1cccc(C(F)(F)F)c1)C(F)(F)F (centres unmarked) [Ia-77] | HPLC-MS: logP = 3.93; mass | 100 | – | efficacy in % (fertile eggs laid) [8]: 100%; efficacy in % [6]: 80%
CC(NC(=O)c1ccc(/C=C/C(=O)NC(c2cccc(C(F)(F)F)c2)C(F)(F)F)cc1Cl)C(F)(F)F (centres unmarked) [Ia-158] | HPLC-MS: logP = 3.78; mass | 100 | 100 | efficacy in % [3]: 100%; efficacy in % ([4]; application rate 100 g/ha): 80%
N#Cc1ccc(/C=C/C(=O)NC(c2cccc(C(F)(F)F)c2)C(F)(F)F)cc1C(F)(F)F (centres unmarked) [Ia-46, (2E)-3-[4-cyano-3-(trifluoromethyl)phenyl]-N-{2,2,2-trifluoro-1-[3-(trifluoromethyl)phenyl]ethyl}acrylamide] | – | – | – | efficacy in % (fertile eggs laid) [8]: 100%; chromatographic logP ([1]; HPLC-MS): 4.06; pest or weed control at 0.02 mg [2]: 100%; pest or weed control at 500 g/ha [3]: 100%; pest or weed control at 500 g/ha [9]: 100%
O=C(/C=C/c1ccc(C(=O)NCC2CC2)c(Cl)c1)NC(c1cccc(C(F)(F)F)c1)C(F)(F)F (centres unmarked) [Ia-163] | HPLC-MS: logP = 3.54; mass | 100 | 100 | efficacy in % ([4]; application rate 100 g/ha): 100%
